From patent publication US8119692B2 (priority 2007, dated 2012)

The compounds below were run against Lethal factor protease (Bacillus anthracis, UniProt P15917) (assay: biochemical). Settings: LF (FRET) Ki^app.
Chain of Lethal factor protease (P15917 34-809 limits assumed): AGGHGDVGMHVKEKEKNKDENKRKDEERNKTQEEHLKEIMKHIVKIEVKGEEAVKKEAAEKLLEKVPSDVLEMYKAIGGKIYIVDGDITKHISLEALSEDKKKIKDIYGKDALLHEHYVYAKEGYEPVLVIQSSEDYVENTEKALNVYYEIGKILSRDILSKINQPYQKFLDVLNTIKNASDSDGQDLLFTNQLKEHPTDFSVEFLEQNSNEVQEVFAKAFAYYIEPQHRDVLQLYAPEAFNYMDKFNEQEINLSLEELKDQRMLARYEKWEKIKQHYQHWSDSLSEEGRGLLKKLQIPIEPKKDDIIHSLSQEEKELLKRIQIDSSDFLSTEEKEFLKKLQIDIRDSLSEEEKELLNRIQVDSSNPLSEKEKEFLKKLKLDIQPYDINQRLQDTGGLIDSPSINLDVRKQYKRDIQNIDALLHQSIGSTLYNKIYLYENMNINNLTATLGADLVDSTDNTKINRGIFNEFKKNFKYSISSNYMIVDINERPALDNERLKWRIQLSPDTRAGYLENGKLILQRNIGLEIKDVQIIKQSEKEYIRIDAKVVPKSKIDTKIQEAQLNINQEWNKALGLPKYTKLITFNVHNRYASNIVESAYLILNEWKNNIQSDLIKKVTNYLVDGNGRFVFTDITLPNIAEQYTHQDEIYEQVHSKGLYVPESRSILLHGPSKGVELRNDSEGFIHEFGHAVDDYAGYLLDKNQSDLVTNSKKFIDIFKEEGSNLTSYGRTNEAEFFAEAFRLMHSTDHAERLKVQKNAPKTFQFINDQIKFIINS

**Q.** Which Ki does the source give for CO[C@H](C[C@H](CCN1CCC[C@H](CN2CCCCC2)C1)C(=O)NO)c1ccc(F)cc1 [Compound 168044, (2S,4R)-4-(4-fluorophenyl)-N-hydroxy-4-methoxy-2-(2-((R)-3-(piperidin-1-ylmethyl)piperidin-1-yl)ethyl)butanamide] here?
**A.** 1920 nM

**Q.** With CO[C@H](C[C@H](CCN1CCC[C@@H](CN2CCCCC2)C1)C(=O)NO)c1ccc(F)cc1 [Compound 168045, (2S,4R)-4-(4-fluorophenyl)-N-hydroxy-4-methoxy-2-(2-((S)-3-(piperidin-1-ylmethyl)piperidin-1-yl)ethyl)butanamide] as the compound, how does the Ki read?
**A.** 430 nM

**Q.** How did the Ki turn out when CO[C@H](C[C@H](CCN(C)CCN(C)c1ccccc1)C(=O)NO)c1ccc(F)cc1 [Compound 168058, (2S,4R)-4-(4-fluorophenyl)-N-hydroxy-4-methoxy-2-(2-(methyl(2-(methyl(phenyl)amino)ethyl)amino)ethyl)butanamide] was run?
**A.** 780 nM

**Q.** With CO[C@H](C[C@H](CCN1CCC[C@@H](CO)C1)C(=O)NO)c1ccc(F)cc1 [Compound 168059, (2S,4R)-4-(4-fluorophenyl)-N-hydroxy-2-(2-((R)-3-(hydroxymethyl)piperidin-1-yl)ethyl)-4-methoxybutanamide] as the compound, how does the Ki read?
**A.** 600 nM

**Q.** With CO[C@H](C[C@H](CCN(C)CCN(C)CCCc1ccccc1)C(=O)NO)c1ccc(F)cc1 [Compound 168082, (2S,4R)-4-(4-fluorophenyl)-N-hydroxy-4-methoxy-2-(2-(methyl(2-(methyl(3-phenylpropyl)amino)ethyl)amino)ethyl)butanamide] as the compound, how does the Ki read?
**A.** 820 nM

**Q.** CO[C@H](C[C@H](CCCCNCc1ccc(F)c(C)c1)C(=O)NO)c1ccc(F)cc1 [Compound 168136, (S)-6-(4-fluoro-3-methylbenzylamino)-2-((R)-2-(4-fluorophenyl)-2-methoxyethyl)-N-hydroxyhexanamide] was tested. Which Ki did it give?
**A.** 190 nM

**Q.** How did the Ki turn out when CO[C@H](C[C@H](CCCCN(C)Cc1ccc(F)cc1)C(=O)NO)c1ccc(F)cc1 [Compound 168138] was run?
**A.** 390 nM

**Q.** With CO[C@H](C[C@H](CCCCNCCc1ccc(F)cc1)C(=O)NO)c1ccc(F)cc1 [Compound 168221] as the compound, how does the Ki read?
**A.** 280 nM

**Q.** For CO[C@H](C[C@H](CCCCNCCCc1ccc(F)cc1)C(=O)NO)c1ccc(F)cc1 [Compound 168222, (S)-2-((R)-2-(4-fluorophenyl)-2-methoxyethyl)-6-(3-(4-fluorophenyl)propylamino)-N-hydroxyhexanamide], which Ki is on record?
**A.** 170 nM

**Q.** How did the Ki turn out when CO[C@H](C[C@H](CCCCNCc1cccs1)C(=O)NO)c1ccc(F)cc1 [Compound 168223] was run?
**A.** 210 nM

**Q.** How did the Ki turn out when CO[C@H](C[C@H](CCCCNCc1ccc(Oc2ccccc2)cc1)C(=O)NO)c1ccc(F)cc1 [Compound 168224, (S)-2-((R)-2-(4-fluorophenyl)-2-methoxyethyl)-N-hydroxy-6-(4-phenoxybenzylamino)hexanamide] was run?
**A.** 230 nM

**Q.** CO[C@H](C[C@H](CCCCN1CCN(Cc2ccccc2)CC1)C(=O)NO)c1ccc(F)cc1 [Compound 168226, (S)-6-(4-benzylpiperazin-1-yl)-2-((R)-2-(4-fluorophenyl)-2-methoxyethyl)-N-hydroxyhexanamide] was tested. Which Ki did it give?
**A.** 580 nM

**Q.** How did the Ki turn out when CO[C@H](C[C@H](CCCCNCC1CCCCC1)C(=O)NO)c1ccc(F)cc1 [Compound 168227, (S)-6-(cyclohexylmethylamino)-2-((R)-2-(4-fluorophenyl)-2-methoxyethyl)-N-hydroxyhexanamide] was run?
**A.** 690 nM

**Q.** How did the Ki turn out when CO[C@H](C[C@H](CCCCNCc1ccc(C)o1)C(=O)NO)c1ccc(F)cc1 [Compound 168228, (S)-2-((R)-2-(4-fluorophenyl)-2-methoxyethyl)-N-hydroxy-6-((5-methylfuran-2-yl)methylamino)hexanamide] was run?
**A.** 2800 nM

**Q.** For CO[C@H](C[C@H](CCCCNc1ccc(F)cc1)C(=O)NO)c1ccc(F)cc1 [Compound 168229], which Ki is on record?
**A.** 2800 nM

**Q.** For CO[C@H](C[C@H](CCCCNCc1cccc(-c2ccc(F)cc2)c1)C(=O)NO)c1ccc(F)cc1 [Compound 168230, (S)-6-((4′-fluorobiphenyl-3-yl)methylamino)-2-((R)-2-(4-fluorophenyl)-2-methoxyethyl)-N-hydroxyhexanamide], which Ki is on record?
**A.** 450 nM

**Q.** How did the Ki turn out when CO[C@H](C[C@H](CCCCNCc1cc2ccccc2s1)C(=O)NO)c1ccc(F)cc1 [Compound 168231, (S)-6-(benzo[b]thiophen-2-ylmethylamino)-2-((R)-2-(4-fluorophenyl)-2-methoxyethyl)-N-hydroxyhexanamide] was run?
**A.** 320 nM
